Results published in patent publication US11739098B2 (BRISTOL-MYERS SQUIBB COMPANY, priority 2017, dated 2023).

Legend:
Format in all cases: cell-based
[1] = biological target: T1, human TLR7 (Homo sapiens, UniProt Q9NYK1); experiment: TLR7 inhibition reporter assay (HEK-Blue cells, SEAP reporter, gardiquimod stimulation); conditions: HEK-Blue cells overexpressing human TLR7, SEAP reporter, gardiquimod 7.5 μM
T1 construct: host or cells: HEK-Blue cells (HEK293-derived reporter line)
T1 sequence (Q9NYK1 27-1049): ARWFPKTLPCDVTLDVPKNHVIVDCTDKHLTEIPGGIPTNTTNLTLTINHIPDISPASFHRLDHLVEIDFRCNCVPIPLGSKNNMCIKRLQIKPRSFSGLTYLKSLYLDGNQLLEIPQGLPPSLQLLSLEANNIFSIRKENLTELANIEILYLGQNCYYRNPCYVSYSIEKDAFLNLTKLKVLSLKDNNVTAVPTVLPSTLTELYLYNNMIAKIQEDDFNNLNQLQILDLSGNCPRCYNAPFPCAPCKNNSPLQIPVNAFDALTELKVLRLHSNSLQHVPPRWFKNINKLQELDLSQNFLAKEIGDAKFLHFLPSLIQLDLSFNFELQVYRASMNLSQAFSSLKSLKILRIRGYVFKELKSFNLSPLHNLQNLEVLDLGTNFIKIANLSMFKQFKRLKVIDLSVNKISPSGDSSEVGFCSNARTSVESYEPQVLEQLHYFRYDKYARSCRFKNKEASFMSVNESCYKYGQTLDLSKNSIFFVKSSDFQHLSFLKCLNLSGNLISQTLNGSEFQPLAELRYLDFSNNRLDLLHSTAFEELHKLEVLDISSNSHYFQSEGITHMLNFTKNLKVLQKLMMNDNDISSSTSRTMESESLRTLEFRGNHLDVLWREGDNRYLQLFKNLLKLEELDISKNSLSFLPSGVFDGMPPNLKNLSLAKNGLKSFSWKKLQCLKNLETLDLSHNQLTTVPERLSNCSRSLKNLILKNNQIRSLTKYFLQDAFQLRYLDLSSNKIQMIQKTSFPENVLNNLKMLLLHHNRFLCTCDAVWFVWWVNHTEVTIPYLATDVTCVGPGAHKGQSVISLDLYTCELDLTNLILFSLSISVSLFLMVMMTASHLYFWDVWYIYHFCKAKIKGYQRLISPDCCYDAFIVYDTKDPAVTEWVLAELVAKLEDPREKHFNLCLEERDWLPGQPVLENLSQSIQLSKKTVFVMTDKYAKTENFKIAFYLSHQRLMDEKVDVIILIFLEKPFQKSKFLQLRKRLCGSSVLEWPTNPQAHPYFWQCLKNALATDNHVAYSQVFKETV
How it was run: (§1)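 HEK-Blue cells overexpressing human TLR7, TLR8 or TLR9 (NF-κB/AP-1-driven SEAP) pre-treated 30 min at room temperature with compound (0.05 nM–50 μM), then stimulated with gardiquimod 7.5 μM (TLR7), R848 15.9 μM (TLR8) or ODN2006 5 nM (TLR9). SEAP read colorimetrically after 22 h at 37 °C; % inhibition calculated.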

[2] = biological target: T2, human TLR8 (Homo sapiens, UniProt Q9NR97); experiment: TLR8 inhibition reporter assay (HEK-Blue cells, SEAP reporter, R848 stimulation); conditions: HEK-Blue cells overexpressing human TLR8, SEAP reporter, R848 15.9 μM
T2 construct: host or cells: HEK-Blue cells (HEK293-derived reporter line)
T2 sequence (Q9NR97 27-1041): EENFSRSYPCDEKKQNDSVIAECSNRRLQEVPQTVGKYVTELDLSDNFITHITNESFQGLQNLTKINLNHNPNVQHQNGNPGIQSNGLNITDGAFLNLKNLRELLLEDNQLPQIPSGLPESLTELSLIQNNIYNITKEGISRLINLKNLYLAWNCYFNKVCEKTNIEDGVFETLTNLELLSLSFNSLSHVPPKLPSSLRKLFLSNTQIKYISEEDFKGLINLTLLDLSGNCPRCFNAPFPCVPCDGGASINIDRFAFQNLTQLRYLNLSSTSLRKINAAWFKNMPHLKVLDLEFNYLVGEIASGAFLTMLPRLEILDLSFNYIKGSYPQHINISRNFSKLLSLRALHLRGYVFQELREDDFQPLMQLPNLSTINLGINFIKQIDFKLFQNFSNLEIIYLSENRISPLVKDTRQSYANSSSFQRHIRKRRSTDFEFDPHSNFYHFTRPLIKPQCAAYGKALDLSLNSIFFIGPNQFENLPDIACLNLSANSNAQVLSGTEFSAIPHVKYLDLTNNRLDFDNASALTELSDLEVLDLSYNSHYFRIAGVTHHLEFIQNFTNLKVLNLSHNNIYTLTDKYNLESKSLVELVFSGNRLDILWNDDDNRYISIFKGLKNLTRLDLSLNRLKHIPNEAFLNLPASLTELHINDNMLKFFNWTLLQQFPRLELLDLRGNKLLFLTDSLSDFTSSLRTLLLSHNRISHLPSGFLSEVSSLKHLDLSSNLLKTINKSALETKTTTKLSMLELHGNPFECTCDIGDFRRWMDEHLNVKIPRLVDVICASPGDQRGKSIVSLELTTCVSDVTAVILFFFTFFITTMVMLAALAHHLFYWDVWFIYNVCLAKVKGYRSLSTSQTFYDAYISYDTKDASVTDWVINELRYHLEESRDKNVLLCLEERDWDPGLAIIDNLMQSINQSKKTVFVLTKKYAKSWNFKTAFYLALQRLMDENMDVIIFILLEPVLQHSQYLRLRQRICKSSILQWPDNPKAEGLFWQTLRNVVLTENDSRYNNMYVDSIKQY
How it was run: as §1

[3] = biological target: T3, human TLR9 (Homo sapiens, UniProt Q9NR96); experiment: TLR9 inhibition reporter assay (HEK-Blue cells, SEAP reporter, ODN2006 stimulation); conditions: HEK-Blue cells overexpressing human TLR9, SEAP reporter, ODN2006 5 nM
T3 construct: host or cells: HEK-Blue cells (HEK293-derived reporter line)
T3 sequence (Q9NR96 26-1032): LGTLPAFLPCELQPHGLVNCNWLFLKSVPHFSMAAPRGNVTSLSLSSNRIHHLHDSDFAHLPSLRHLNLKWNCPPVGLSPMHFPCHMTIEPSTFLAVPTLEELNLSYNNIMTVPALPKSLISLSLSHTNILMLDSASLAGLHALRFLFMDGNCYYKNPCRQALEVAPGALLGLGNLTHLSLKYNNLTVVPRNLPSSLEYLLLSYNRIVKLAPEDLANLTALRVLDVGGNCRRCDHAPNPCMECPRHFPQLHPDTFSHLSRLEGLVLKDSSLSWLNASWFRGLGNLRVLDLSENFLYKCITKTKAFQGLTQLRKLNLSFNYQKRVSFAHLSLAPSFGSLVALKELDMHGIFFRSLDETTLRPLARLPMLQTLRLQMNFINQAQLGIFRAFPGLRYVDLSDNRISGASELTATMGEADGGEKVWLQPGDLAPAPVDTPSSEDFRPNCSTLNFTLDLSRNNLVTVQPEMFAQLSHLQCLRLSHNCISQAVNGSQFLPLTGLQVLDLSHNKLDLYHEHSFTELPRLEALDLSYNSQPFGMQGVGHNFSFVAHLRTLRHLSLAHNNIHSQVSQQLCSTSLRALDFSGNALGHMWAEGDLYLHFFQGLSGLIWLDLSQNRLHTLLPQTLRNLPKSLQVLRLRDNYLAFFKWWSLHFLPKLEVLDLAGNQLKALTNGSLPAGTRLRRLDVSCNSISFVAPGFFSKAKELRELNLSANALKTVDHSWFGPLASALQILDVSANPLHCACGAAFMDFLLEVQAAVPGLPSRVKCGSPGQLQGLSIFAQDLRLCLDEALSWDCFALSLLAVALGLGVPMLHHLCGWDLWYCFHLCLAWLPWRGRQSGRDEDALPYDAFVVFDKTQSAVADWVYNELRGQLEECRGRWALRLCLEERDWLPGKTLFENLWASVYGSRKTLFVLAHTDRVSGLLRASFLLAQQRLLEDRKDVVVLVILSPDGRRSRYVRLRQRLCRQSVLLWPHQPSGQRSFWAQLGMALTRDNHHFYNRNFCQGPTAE
How it was run: as §1

SMILES | IC50 [1] [nM] | IC50 [2] [nM] | IC50 [3] [nM]
Cc1ccc(-c2[nH]c3ccc(C4CCN(C(=O)C[C@H](C)O)CC4)cc3c2C(C)C)c2ncnn12 [Example 599, (S)-3-hydroxy-1-(4-(3-isopropyl-2-(5-methyl-[1,2,4]triazolo[1,5-a]pyridin-8-yl)-1H-indol-5-yl)piperidin-1-yl)butan-1-one] | 100 to 1000 | 100 to 1000 | 1000 to 50000
Cc1ncc(CN2CCC(c3ccc4[nH]c(-c5ccnc6[nH]nc(C)c56)c(C(C)C)c4c3)CC2)[nH]1 [Example 872, 4-(3-isopropyl-5-(1-((2-methyl-1H-imidazol-5-yl)methyl)piperidin-4-yl)-1H-indol-2-yl)-3-methyl-1H-pyrazolo[3,4-b]pyridine] | 1000 to 50000 | < 100 | 100 to 1000
CC(C)c1c(-c2cnc3ncnn3c2)[nH]c2ccc(C3CCN(C(=O)CN(C)C)CC3)cc12 [Example 554, 1-(4-(2-([1,2,4]triazolo[1,5-a]pyrimidin-6-yl)-3-isopropyl-1H-indol-5-yl)piperidin-1-yl)-2-(dimethylamino)ethan-1-one] | < 100 | 100 to 1000 | 1000 to 50000
Cc1cc(-c2[nH]c3ccc(C4CCN(CCCS(C)(=O)=O)CC4)cc3c2C(C)C)cn2nnnc12 [Example 787, 6-(3-isopropyl-5-(1-(3-(methylsulfonyl)propyl)piperidin-4-yl)-1H-indol-2-yl)-8-methyltetrazolo[1,5-a]pyridine] | < 100 | < 100 | 1000 to 50000
CNCCN1CCC(c2ccc3[nH]c(-c4ccc5nccn5c4)c(C(C)C)c3c2)CC1 [Example 680, 2-(4-(2-(imidazo[1,2-a]pyridin-6-yl)-3-isopropyl-1H-indol-5-yl)piperidin-1-yl)-N-methylethan-1-amine] | < 100 | < 100 | 100 to 1000
CC(C)c1c(-c2ccnc3[nH]ncc23)[nH]c2ccc(C3CCN(CCCN4CCOCC4)CC3)cc12 [Example 857, 4-(3-(4-(3-isopropyl-2-(1H-pyrazolo[3,4-b]pyridin-4-yl)-1H-indol-5-yl)piperidin-1-yl)propyl)morpholine] | 1000 to 50000 | 1000 to 50000 | 100 to 1000
Cc1cc(-c2[nH]c3ccc(C4CCN(C(=O)CN(C)C)CC4)cc3c2C(C)C)nc2scnc12 [Example 543, 2-(dimethylamino)-1-(4-(3-isopropyl-2-(7-methylthiazolo[5,4-b]pyridin-5-yl)-1H-indol-5-yl)piperidin-1-yl)ethan-1-one] | < 100 | < 100 | 1000 to 50000
Cc1cc(-c2[nH]c3ccc(C4CCNCC4)cc3c2C(C)C)cc2ocnc12 [Example 234, 6-(3-isopropyl-5-(piperidin-4-yl)-1H-indol-2-yl)-4-methylbenzo[d]oxazole] | < 100 | < 100 | 1000 to 50000
Cc1cc2cc(-c3[nH]c4ccc(C5CCNCC5)cc4c3C(C)C)cc(C)n2n1 [Example 142, 5-(3-isopropyl-5-(piperidin-4-yl)-1H-indol-2-yl)-2,7-dimethylpyrazolo[1,5-a]pyridine] | < 100 | < 100 | 1000 to 50000

Further lines, results first:

IC50 [1] [nM] | IC50 [2] [nM] | IC50 [3] [nM] | SMILES
< 100 | < 100 | 1000 to 50000 | Cc1cc(-c2[nH]c3ccc(C4CCN(C(=O)CN5CC6(COC6)C5)CC4)cc3c2C(C)C)cn2nnnc12 [Example 471, 1-(4-(3-isopropyl-2-(8-methyltetrazolo[1,5-a]pyridin-6-yl)-1H-indol-5-yl)piperidin-1-yl)-2-(2-oxa-6-azaspiro[3.3]heptan-6-yl)ethan-1-one]
< 100 | < 100 | 1000 to 50000 | Cc1cc(-c2[nH]c3ccc(C4CCN(C(=O)CN5CCOCC5)CC4)cc3c2C(C)C)cn2nnnc12 [Example 476, 1-(4-(3-isopropyl-2-(8-methyltetrazolo[1,5-a]pyridin-6-yl)-1H-indol-5-yl)piperidin-1-yl)-2-morpholinoethan-1-one]
< 100 | 1000 to 50000 | 100 to 1000 | CC(C)c1c(-c2cc(C(C)(C)O)c3nccn3c2)[nH]c2ccc(C3CCN(C(=O)CN(C)C)CC3)cc12 [Example 493, 2-(dimethylamino)-1-(4-(2-(8-(2-hydroxypropan-2-yl)imidazo[1,2-a]pyridin-6-yl)-3-isopropyl-1H-indol-5-yl)piperidin-1-yl) ethan-1-one]
< 100 | 100 to 1000 | 1000 to 50000 | CNC(=O)CN1CCC(c2ccc3[nH]c(-c4cc(F)c5nccn5c4)c(CC(F)F)c3c2)CC1 [Example 411, 2-(4-(3-(2,2-difluoroethyl)-2-(8-fluoroimidazo[1,2-a]pyridin-6-yl)-1H-indol-5-yl)piperidin-1-yl)-N-methylacetamide]
< 100 | < 100 | 1000 to 50000 | CC(C)c1c(-c2cn(C)c3ncccc23)[nH]c2ccc(C3CCN(CC(N)=O)CC3)cc12 [Example 296, 2-(4-(3-isopropyl-2-(1-methyl-1H-pyrrolo [2,3-b]pyridin-3-yl)-1H-indol-5-yl)piperidin-1-yl)acetamide]
